Test results from PubChem BioAssay AID504630 (Southern Research Specialized Biocontainment Screening …, 2011).

Tested on: human PBMC cytotoxicity, % cell control
Test: PBMC viability reduction by test compounds – cell-based, human PBMC, set 3, cytotoxicity control for HIV-1 antiviral project, dose response (AID 504630)

## Cc1c2c(=O)n(-c3nc4ccccc4s3)nc-2cc(O)n1Cc1ccccc1
  TC50: 13.2 µM
